The subject of experiment [1] is Candida albicans. The experiment is described as follows: Antifungal activity against Candida albicans BWP17 at MIC80 for 3 days by spot assay. Format: functional, organism-based.
Experiment [2] concerns Candida albicans. The experiment can be described thus: Antifungal activity against Candida albicans BWP17 at 1/10th of MIC80 for 3 days by spot assay. Format: functional, organism-based.
In experiment [3] the test system is Candida albicans. The experiment can be described thus: Antifungal activity against Candida albicans BWP17 assessed as cell wall damage measured as cell clumping at MIC80 by confocal microscopic analysis. Format: functional, organism-based.
For experiment [4], the system named is Candida albicans. The experiment can be described thus: Antifungal activity against Candida albicans BWP17 assessed as necrotic cells at […] incubated for overnight by PI staining based microscopic analysis. Format: functional, organism-based.
Experiment [5] relates to Candida albicans. The experiment can be described thus: Antifungal activity against Candida albicans BWP17 assessed as zone of inhibition at 0.5 mg/ml for 48 hrs by disk diffusion method (reference value: 0.6 cm). It counts as functional.
Experiment [6] deals with Candida albicans. The experiment is described as follows: Antifungal activity against Candida albicans BWP17 assessed as zone of inhibition at 1 mg/ml for 48 hrs by disk diffusion method (reference value: 0.6 cm). Format: functional. In general terms: A growth-free zone around the sample is the usual read-out of agar diffusion tests.
The subject of experiment [7] is Candida albicans. The experiment can be described thus: Antifungal activity against Candida albicans BWP17 assessed as zone of inhibition at 2 mg/ml for 48 hrs by disk diffusion method (reference value: 0.6 cm). Format: functional.
Experiment [8] deals with Candida albicans. The experiment is described as follows: Antifungal activity against Candida albicans BWP17 after 48 hrs by broth dilution method. Format: functional. As to conditions: BWP17, 48 h. (Dilution methods test growth across graded concentrations, often in twofold steps.)
In experiment [9] the test system is Candida albicans. The experiment can be described thus: Antifungal activity against Candida albicans BWP17 at 1.25 mg/ml after 48 hrs by broth dilution method. Format: functional. As to conditions: BWP17, BWP17, 48 h.
For experiment [10], the system named is Candida albicans. The experiment is described as follows: Antifungal activity against Candida albicans BWP17 at 0.6 mg/ml after 48 hrs by broth dilution method. Format: functional. As to conditions: BWP17, BWP17, 48 h.
In experiment [11] the test system is Candida albicans. The experiment is described as follows: Antifungal activity against Candida albicans BWP17 at 0.3 mg/ml after 48 hrs by broth dilution method. Format: functional. As to conditions: BWP17, BWP17, 48 h.
Experiment [12] relates to Candida albicans. The experiment can be described thus: Antifungal activity against Candida albicans BWP17 at 0.16 mg/ml after 48 hrs by broth dilution method. As to conditions: BWP17, BWP17, 48 h. It counts as functional.
Experiment [13] concerns Candida albicans. The experiment can be described thus: Antifungal activity against Candida albicans BWP17 at 0.08 mg/ml after 48 hrs by broth dilution method. It counts as functional. As to conditions: BWP17, BWP17, 48 h.
Experiment [14] has as its system Candida albicans. The experiment is described as follows: Antifungal activity against Candida albicans BWP17 at 0.04 mg/ml after 48 hrs by broth dilution method. Format: functional. As to conditions: BWP17, BWP17, 48 h.
Experiment [15] concerns Candida albicans. The experiment is described as follows: Antifungal activity against Candida albicans BWP17 assessed as mild growth inhibition at 400 ug/ml after 24 hrs by spot assay. Format: functional, organism-based.
Experiment [16] concerns Candida albicans. The experiment is described as follows: Antifungal activity against Candida albicans BWP17 at 400 ug/ml after 48 hrs by spot assay. Format: functional, organism-based.
Experiment [17] concerns Candida albicans. The experiment can be described thus: Antifungal activity against Candida albicans BWP17 at > MIC80 compound added to secondary culture for 3 days by spot assay. It counts as functional, organism-based.
Experiment [18] relates to Candida albicans. The experiment can be described thus: Antifungal activity against Candida albicans BWP17 at MIC80 for 3 days by spot assay in presence of ketoconazole. Format: functional, organism-based.
Experiment [19] relates to Candida albicans. The experiment is described as follows: Antifungal activity against Candida albicans BWP17 at 1/10th of MIC80 for 3 days by spot assay in presence of ketoconazole. Format: functional, organism-based.
Experiment [20] has as its system Candida albicans. The experiment can be described thus: Antifungal activity against Candida albicans BWP17 at MIC80 after 2 days by spot assay in presence of terbinafine. Format: functional, organism-based.
Experiment [21] concerns Candida albicans. The experiment can be described thus: Antifungal activity against Candida albicans BWP17 at MIC80 after 3 days by spot assay in presence of terbinafine. Format: functional, organism-based.
Experiment [22] relates to Candida albicans. The experiment can be described thus: Antifungal activity against Candida albicans BWP17 at 62.5 ug/ml for 3 days by spot assay in presence of terbinafine. It counts as functional, organism-based.
Experiment [23] has as its system Candida albicans. The experiment is described as follows: Antifungal activity against Candida albicans BWP17 assessed as cell wall damage measured as cell clumping at MIC80 by confocal microscopic analysis in presence of ketoconazole. It counts as functional, organism-based.
The test system of experiment [24] is Candida albicans. The experiment is described as follows: Antifungal activity against Candida albicans BWP17 assessed as increase in chitin level at MIC80 by CFW staining based microscopic analysis in presence of ketoconazole. It counts as functional, organism-based.
For experiment [25], the system named is Candida albicans. The experiment is described as follows: Antifungal activity against Candida albicans BWP17 assessed as increase in chitin level at MIC80 by CFW staining based microscopic analysis. Format: functional, organism-based.
Experiment [26] concerns Candida albicans. The experiment can be described thus: Antifungal activity against Candida albicans BWP17 assessed as increase in chitin level at 1/10th of MIC80 by spot assay in presence of CFW. Format: functional, organism-based.
The subject of experiment [27] is Candida albicans. The experiment is described as follows: Antifungal activity against Candida albicans BWP17 assessed as cell shrinkage and deposition of cellular content on cell surface at 312.5 ug/ml by scanning electron microscopic analysis. It counts as functional, organism-based.
Experiment [28] has as its system Candida albicans. The experiment is described as follows: Antifungal activity against Candida albicans BWP17 assessed as cell shrinkage and deposition of cellular content on cell surface at < MIC80 by scanning electron microscopic analysis. It counts as functional, organism-based.
Experiment [29] has as its system Candida albicans. The experiment is described as follows: Antifungal activity against Candida albicans BWP17 assessed as cell shrinkage and deposition of cellular content on cell surface at 312.5 ug/ml by scanning electron microscopic analysis in presence of ketocanozole. Format: functional, organism-based.
For experiment [30], the system named is Candida albicans. The experiment is described as follows: Antifungal activity against Candida albicans BWP17 assessed as necrotic cells incubated for overnight by PI staining based microscopic analysis. Format: functional, organism-based.
The subject of experiment [31] is Candida albicans. The experiment can be described thus: Antifungal activity against Candida albicans BWP17 assessed as necrotic cells at 312.5 ug/ml incubated for overnight by PI staining based microscopic analysis in presence of ketoconazole. It counts as functional, organism-based.

By MIC80 is commonly meant the lowest concentration that inhibits either 80% of growth or 80% of the strains tested, depending on the study. A higher MIC80 goes with lower susceptibility. One may read the inhibition as how much of the control response was suppressed. High values mean strong suppression, low ones little suppression.

The structures appear in SMILES notation. In brackets after ≈: the same amount, converted by molar mass. Activity calls are given as the source filed them. The rule behind the calls is not given here.

For `CC(=O)N1CCN(c2ccc(OCC3COC(Cn4ccnc4)(c4ccc(Cl)cc4Cl)O3)cc2)CC1` (stereo not given), the result in experiment [1], in experiment [2], in [3] and in experiment [4] was Active.
As for `CN(C/C=C/C#CC(C)(C)C)Cc1cccc2ccccc12`, the outcome in experiment [1] was Active.
In the case of `O=C(O)CC[C@H](NC(=O)C(=O)c1cn(Cc2cn(-c3ccccc3)nn2)c2ccccc12)C(=O)O`, the Activity in experiment [5] is given as 0.8 cm; in experiment [6] it was 1.2 cm; in experiment [7], 2.5 cm. In [8], the MIC80 came to 312 µg/mL (≈ 657 µM). The compound further displayed an inhibition at 1250 µg/mL in experiment [9] of 84%. In experiment [10], this compound gave an inhibition at 600 µg/mL of 84%. For the same compound, the inhibition at 300 µg/mL in experiment [11] came to 81%. This compound displayed an inhibition at 160 µg/mL in [12] of 33%. For the same compound, at 80 µg/mL the inhibition in experiment [13] was 18%. Further, the inhibition at 40 µg/mL in experiment [14] amounted to 6%. The result in [15], in experiment [17], in [1], in experiment [18], in experiment [2] and in [19] was Active. Also, the outcome in experiment [20], in experiment [21], in experiment [3], in experiment [23], in experiment [24] and in experiment [25] was Active. Also, the result in experiment [26], in experiment [27], in [28], in [29], in experiment [30] and in experiment [31] was Active. In addition, the result in [16] and in experiment [22] was inactive.

These data come from ChEMBL document CHEMBL3739397, “Identification of an indoletriazoleamino acid conjugate as a highly effective antifungal agent” (2015).
